The target of one assay is PI3Kα H1047R (Homo sapiens, UniProt P42336, H1047R). In words: PI3Kα H1047R enzyme assay (Transcreener ADP2 TR-FRET Red Assay). Format: biochemical. Particulars: purified recombinant full-length protein; 2 hours pre-incubation with compound. As for the experimental part:
(§1) Activity against PI3Kα and PI3Kα H1047R enzymes were determined in biochemical assays using purified recombinant full-length proteins with the Transcreener ADP^2 TR-FRET Red Assay from Bellbrook Labs. (Catalogue number 3011-10K). Test compounds were dissolved in DMSO and were tested in 11 point 1:3 serial dilutions, typical final concentration range from 50,000 nM to 0.85 nM. Enzymes were pre-incubated with compounds for 2 hours at room temperature prior to initiating the reactions. Assays were initiated with a 2×ATP/PI(4,5)P2 diC8 substrate mixture. After 60 minutes at room temperature, the reactions were quenched with detection reagent and incubated for an additional 60 minutes at room temperature. The plates were read using a multimode reader and the emission ratio of 665 nm to 615 nm was determined. This ratio was converted to percent of control (POC). [1-(high control-sample signal)/(high control-low control)]*100. Wells without compound were used to determine high control values and wells without enzyme were used to determine low control values. The POC values were fit using a four-parameter logistic model and the value where the fit curve was equal to 50 POC was reported as the IC50 using the Signals VitroVivo software package (PerkinElmer). Final assay conditions were: 40 mM HEPES pH 7.5, 20 mM NaCl, 25 mM MgCl2, 0.01% Triton X-100. The enzyme source, catalogue number, final enzyme concentration, and final ATP and PI(4,5)P2 diC8 concentration can be found in the table E10 below.

Assay [1] deals with T47D (PI3Kα-H1047R) cell line. In words: HTRF phospho-AKT(S473) cell assay in T47D cells. Format: cell-based, human. The conditions noted are these: Homo sapiens; T47D (PI3Kα-H1047R) cells, HTRF phospho-AKT(S473), 2 hours compound incubation. In outline: (§2)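 Cells plated overnight (T47D in RPMI/10% FBS/0.2 units/mL insulin; SKBR3 in McCoy's 5A/10% FBS), then given 12-point 1:3 compound series (top 5 μM T47D, 10 μM SKBR3; ≤0.5% DMSO) for 2 h at 37° C. SKBR3 stimulated with 70 ng/ml PDGF-BB for final 15 min. Lysate pAKT(S473) by HTRF; IC50 calculated.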
(TR-FRET usually uses a lanthanide donor and a delayed reading to cut background.)

For a further assay, the target named is PI3Kα (Homo sapiens, UniProt P42336). In words: PI3Kα enzyme assay (Transcreener ADP2 TR-FRET Red Assay). Format: biochemical. Particulars: purified recombinant full-length protein; 2 hours pre-incubation with compound; read-out: PI3Kα WT IC50. As for the experimental part: as §1
Assay [2] concerns SKBR3 (PI3Kα-Wild Type) cell line. In words: HTRF phospho-AKT(S473) cell assay in SKBR3 cells. Format: cell-based, human. The conditions noted are these: Homo sapiens, SK-BR-3; SKBR3 (PI3Kα-Wild Type) cells, HTRF phospho-AKT(S473), 2 hours compound incubation, PDGF-BB stimulated. In a few lines:
as §2

PI3Kα H1047R, sequence (P42336 whole entry H1047R): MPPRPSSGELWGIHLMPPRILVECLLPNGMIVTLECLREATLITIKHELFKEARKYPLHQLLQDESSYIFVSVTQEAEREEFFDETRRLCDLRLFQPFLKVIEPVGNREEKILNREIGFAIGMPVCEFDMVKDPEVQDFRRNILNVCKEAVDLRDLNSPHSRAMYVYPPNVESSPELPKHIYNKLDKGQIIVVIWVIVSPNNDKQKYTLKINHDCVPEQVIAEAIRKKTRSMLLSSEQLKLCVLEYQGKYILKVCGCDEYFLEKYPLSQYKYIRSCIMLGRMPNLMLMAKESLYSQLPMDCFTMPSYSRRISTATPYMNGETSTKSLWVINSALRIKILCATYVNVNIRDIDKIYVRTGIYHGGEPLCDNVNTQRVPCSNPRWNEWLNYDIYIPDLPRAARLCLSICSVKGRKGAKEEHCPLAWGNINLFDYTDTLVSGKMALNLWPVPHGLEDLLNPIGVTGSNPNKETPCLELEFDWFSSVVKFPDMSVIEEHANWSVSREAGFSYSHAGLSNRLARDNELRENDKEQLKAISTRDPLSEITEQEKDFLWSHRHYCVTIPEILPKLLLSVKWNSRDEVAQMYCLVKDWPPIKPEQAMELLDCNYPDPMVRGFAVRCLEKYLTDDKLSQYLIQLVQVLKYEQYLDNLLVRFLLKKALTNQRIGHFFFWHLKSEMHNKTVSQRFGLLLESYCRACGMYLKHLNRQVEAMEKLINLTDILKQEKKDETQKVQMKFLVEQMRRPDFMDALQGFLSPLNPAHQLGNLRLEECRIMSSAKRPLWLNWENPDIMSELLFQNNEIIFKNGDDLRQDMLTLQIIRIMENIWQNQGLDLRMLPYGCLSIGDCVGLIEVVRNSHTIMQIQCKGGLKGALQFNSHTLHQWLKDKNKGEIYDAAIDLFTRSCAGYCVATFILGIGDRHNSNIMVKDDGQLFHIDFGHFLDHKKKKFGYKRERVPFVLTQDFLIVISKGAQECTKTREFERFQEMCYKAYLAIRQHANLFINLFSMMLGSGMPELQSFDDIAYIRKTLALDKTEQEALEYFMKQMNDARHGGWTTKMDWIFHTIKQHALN
PI3Kα H1047R, sequence (P27986 2-724 partner): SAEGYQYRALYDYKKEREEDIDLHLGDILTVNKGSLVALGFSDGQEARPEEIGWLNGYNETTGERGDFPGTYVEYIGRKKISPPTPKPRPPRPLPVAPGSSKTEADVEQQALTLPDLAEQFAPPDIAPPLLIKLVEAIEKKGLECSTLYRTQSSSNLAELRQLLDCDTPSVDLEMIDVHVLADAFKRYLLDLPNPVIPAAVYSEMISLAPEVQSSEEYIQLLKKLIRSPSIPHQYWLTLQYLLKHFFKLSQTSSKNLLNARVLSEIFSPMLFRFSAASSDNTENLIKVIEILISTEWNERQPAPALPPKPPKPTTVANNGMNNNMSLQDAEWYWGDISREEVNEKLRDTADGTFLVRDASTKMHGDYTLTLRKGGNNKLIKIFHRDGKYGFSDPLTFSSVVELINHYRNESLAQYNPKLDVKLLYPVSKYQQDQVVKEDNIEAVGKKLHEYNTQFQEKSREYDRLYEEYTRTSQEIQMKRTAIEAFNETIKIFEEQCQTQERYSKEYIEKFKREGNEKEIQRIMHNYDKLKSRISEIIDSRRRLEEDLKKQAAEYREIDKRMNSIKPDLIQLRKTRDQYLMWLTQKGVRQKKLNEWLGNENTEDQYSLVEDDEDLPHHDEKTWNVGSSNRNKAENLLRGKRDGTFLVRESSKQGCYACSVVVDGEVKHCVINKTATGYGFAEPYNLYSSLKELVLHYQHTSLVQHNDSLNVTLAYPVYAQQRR
PI3Kα, sequence (P42336 whole entry): as the sequence (P42336 whole entry H1047R) above, with R1047H counted along it
PI3Kα, sequence (P27986 2-724 partner): as the sequence (P27986 2-724 partner) above

For `Cc1cc([C@@H](C)Nc2ccc(Cl)nc2C(=O)NS(C)(=O)=O)c2nc(N3CCC(F)(F)C[C@@H]3C)n(C)c(=O)c2c1` (mixture of isomers) [Compound 12, 6-chloro-3-(((R)-1-(2-((S)-4,4-difluoro-2-methylpiperidin-1-yl)-3,6-dimethyl-4-oxo-3,4-dihydroquinazolin-8-yl)ethyl)amino)-N-(methylsulfonyl) picolinamide AND 6-chloro-3-(((R)-1-(2-((R)-4,4-difluoro-2-methylpiperidin-1-yl)-3,6-dimethyl-4-oxo-3,4-dihydroquinazolin-8-yl)ethyl)amino)-N-(methylsulfonyl) picolinamide], the IC50 (usually the concentration that inhibits the measured activity by half) on PI3Kα H1047R is 0.25 to 0.5 µM; in assay [1], 0.25 to 0.5 µM; at PI3Kα, no less than 1 µM; in assay [2], 1 to 5 µM.
Take `Cc1cc([C@@H](C)Nc2ccc(Cl)nc2C(=O)NS(C)(=O)=O)c2nc(N3CCc4ccccc4[C@H]3C)n(C)c(=O)c2c1` (mixture of isomers) [Compound 19, 6-chloro-3-(((R)-1-(3,6-dimethyl-2-((R)-1-methyl-3,4-dihydroisoquinolin-2(1H)-yl)-4-oxo-3,4-dihydroquinazolin-8-yl)ethyl)amino)-N-(methylsulfonyl) picolinamide AND 6-chloro-3-(((R)-1-(3,6-dimethyl-2-((S)-1-methyl-3,4-dihydroisoquinolin-2(1H)-yl)-4-oxo-3,4-dihydroquinazolin-8-yl)ethyl)amino)-N-(methylsulfonyl) picolinamide]: the half-maximal inhibitory concentration (IC50) is no less than 1 µM on PI3Kα H1047R, 0.5 to 1 µM in assay [1], no less than 1 µM at PI3Kα and no less than 5 µM in assay [2].
For `Cc1cc([C@@H](C)Nc2ccc(Cl)nc2C(=O)NS(C)(=O)=O)c2nc(N3CCC(F)(F)C[C@H]3C)n(C)c(=O)c2c1` (single isomer, unassigned) [Compound 41, 6-chloro-3-(((R)-1-(2-((R*)-4,4-difluoro-2-methylpiperidin-1-yl)-3,6-dimethyl-4-oxo-3,4-dihydroquinazolin-8-yl)ethyl)amino)-N-(methylsulfonyl) picolinamide], the IC50 is 0.5 to 1 µM at PI3Kα H1047R, 0.25 to 0.5 µM in assay [1], no less than 1 µM at PI3Kα and 1 to 5 µM in assay [2].
On the same counts, the results for `Cc1cc([C@@H](C)Nc2ccc(Cl)nc2C(=O)NS(C)(=O)=O)c2nc(N3CCC(F)(F)C[C@@H]3C)n(C)c(=O)c2c1` (single isomer, unassigned) [Compound 42, 6-chloro-3-(((R)-1-(2-((R*)-4,4-difluoro-2-methylpiperidin-1-yl)-3,6-dimethyl-4-oxo-3,4-dihydroquinazolin-8-yl)ethyl)amino)-N-(methylsulfonyl) picolinamide] are 0.5 to 1 µM, 0.25 to 0.5 µM, no less than 1 µM and 1 to 5 µM.
For `Cc1cc([C@H](C)Nc2ccccc2S(=O)(=O)NC(=O)C(F)F)c2nc(N3Cc4ccc(F)cc4C3)n(C)c(=O)c2c1` (single isomer, unassigned) [Compound 103, 2,2-difluoro-N-((2-((1-(2-(5-fluoroisoindolin-2-yl)-3,6-dimethyl-4-oxo-3,4-dihydroquinazolin-8-yl)ethyl)amino)phenyl)sulfonyl)acetamide], the IC50 at PI3Kα H1047R is no less than 1 µM; in assay [1], 1 to 5 µM; at PI3Kα it was no less than 1 µM; in assay [2], no less than 5 µM.
`Cc1cc([C@@H](C)Nc2ccccc2S(N)(=O)=O)c2nc(N3Cc4ccc(F)cc4C3)n(C)c(=O)c2c1` (single isomer, unassigned) [Compound 104, 2-((1-(2-(5-fluoroisoindolin-2-yl)-3,6-dimethyl-4-oxo-3,4-dihydroquinazolin-8-yl)ethyl)amino) benzenesulfonamide]: the half-maximal inhibitory concentration (IC50) is no less than 1 µM on PI3Kα H1047R, 0.25 to 0.5 µM in assay [1], no less than 1 µM on PI3Kα and no less than 5 µM in assay [2].
Consider `Cc1cc([C@H](C)Nc2ccccc2S(N)(=O)=O)c2nc(N3Cc4ccc(F)cc4C3)n(C)c(=O)c2c1` (single isomer, unassigned) [Compound 105, 2-((1-(2-(5-fluoroisoindolin-2-yl)-3,6-dimethyl-4-oxo-3,4-dihydroquinazolin-8-yl)ethyl)amino) benzenesulfonamide], for which the IC50 is no less than 1 µM at PI3Kα H1047R, 1 to 5 µM in assay [1], no less than 1 µM at PI3Kα and no less than 5 µM in assay [2].
On to `Cc1cc([C@@H](C)Nc2cn(C)nc2C(=O)NS(C)(=O)=O)c2nc(N3Cc4ccc(F)cc4C3)n(C)c(=O)c2c1` (single isomer, unassigned) [Compound 106, 4-((1-(2-(5-fluoroisoindolin-2-yl)-3,6-dimethyl-4-oxo-3,4-dihydroquinazolin-8-yl)ethyl)amino)-1-methyl-N-(methylsulfonyl)-1H-pyrazole-3-carboxamide], for which the IC50 at PI3Kα H1047R is no less than 1 µM; in assay [1], 1 to 5 µM; on PI3Kα, no less than 1 µM; in assay [2], no less than 5 µM.
For the compound `Cc1cc([C@H](C)Nc2cn(C)nc2C(=O)NS(C)(=O)=O)c2nc(N3Cc4ccc(F)cc4C3)n(C)c(=O)c2c1` (single isomer, unassigned) [Compound 107, 4-((1-(2-(5-fluoroisoindolin-2-yl)-3,6-dimethyl-4-oxo-3,4-dihydroquinazolin-8-yl)ethyl)amino)-1-methyl-N-(methylsulfonyl)-1H-pyrazole-3-carboxamide], the IC50 at PI3Kα H1047R is no less than 1 µM; in assay [1], 1 to 5 µM; at PI3Kα it was no less than 1 µM; in assay [2], no less than 5 µM.
Regarding `Cc1cc([C@@H](C)Nc2cn(C)nc2C(N)=O)c2nc(N3Cc4ccc(F)cc4C3)n(C)c(=O)c2c1` (single isomer, unassigned) [Compound 108], the half-inhibitory concentration (IC50) on PI3Kα H1047R is no less than 1 µM; in assay [1], 1 to 5 µM; on PI3Kα it was no less than 1 µM; in assay [2], no less than 5 µM.
As to `Cc1ccc(N[C@H](C)c2cccc3c(=O)n(C)c(N4Cc5ccc(F)cc5C4)nc23)c(C(=O)NS(C)(=O)=O)n1` [Compound 2, (R)-3-((1-(2-(5-fluoroisoindolin-2-yl)-3-methyl-4-oxo-3,4-dihydroquinazolin-8-yl)ethyl)amino)-6-methyl-N-(methylsulfonyl) picolinamide], the half-inhibitory concentration (IC50) at PI3Kα H1047R is no less than 1 µM; in assay [1], 1 to 5 µM; at PI3Kα, no less than 1 µM; in assay [2] it was no less than 5 µM.
As for `C[C@@H](Nc1ccc(Cl)nc1C(=O)NS(C)(=O)=O)c1cc(F)cc2c(=O)n(C)c(N3CCC(F)(F)CC3)nc12` [Compound 3, (R)-6-chloro-3-((1-(2-(4,4-difluoropiperidin-1-yl)-6-fluoro-3-methyl-4-oxo-3,4-dihydroquinazolin-8-yl)ethyl)amino)-N-(methylsulfonyl) picolinamide], the 50% inhibitory concentration (IC50) on PI3Kα H1047R was 0.25 to 0.5 µM; in assay [1], less than 0.25 µM; on PI3Kα it was no less than 1 µM; in assay [2], 1 to 5 µM.
On the same counts, the results for `Cc1cc([C@@H](C)Nc2ccc(Cl)nc2C(=O)NS(C)(=O)=O)c2nc(N3Cc4cnn(C)c4C3)n(C)c(=O)c2c1` [Compound 4, (R)-6-chloro-3-((1-(3,6-dimethyl-2-(1-methyl-4,6-dihydropyrrolo[3,4-c]pyrazol-5(1H)-yl)-4-oxo-3,4-dihydroquinazolin-8-yl)ethyl)amino)-N-(methylsulfonyl) picolinamide] are 0.25 to 0.5 µM, less than 0.25 µM, no less than 1 µM and 1 to 5 µM.
On the same counts, the results for `Cc1cc([C@@H](C)Nc2ccc(Cl)nc2C(=O)NS(C)(=O)=O)c2nc(N3CCOCC3)n(C)c(=O)c2c1` [Compound 5, (R)-6-chloro-3-((1-(3,6-dimethyl-2-morpholino-4-oxo-3,4-dihydroquinazolin-8-yl)ethyl)amino)-N-(methylsulfonyl) picolinamide] are 0.5 to 1 µM, less than 0.25 µM, no less than 1 µM and 1 to 5 µM.
As to `Cc1cc([C@@H](C)Nc2ccc(Cl)nc2C(=O)NS(C)(=O)=O)c2nc(N(C)CC3(C(F)(F)F)CC3)n(C)c(=O)c2c1` [Compound 43, (R)-6-chloro-3-((1-(3,6-dimethyl-2-(methyl((1-(trifluoromethyl)cyclopropyl)methyl)amino)-4-oxo-3,4-dihydroquinazolin-8-yl)ethyl)amino)-N-(methylsulfonyl) picolinamide], the IC50 at PI3Kα H1047R and at PI3Kα was no less than 1 µM in each case.

Values taken from patent US12281122B1, “PI3K inhibitors” (Cogent Biosciences, Inc., priority 2023, dated 2025).
